# Tests used:
# p53 = p53 (Homo sapiens, UniProt P04637); settings: reference [28]; cited from earlier work
# MDA-MB-231 cells [1] = assay: Colony formation assay; assay type: cell-based, human; settings: MDA-MB-231 cells expressing high level of mutant p53, transfected vector
# MDA-MB-231 cells [2] = assay: FACS (flow cytometry) analysis after irradiation; assay type: cell-based, human; settings: MDA-MB-231 cells expressing p53/p73OD, 4Gy, 24 h
# Procedure: (§1) A. Cells as in FIG. 6 were subject to Western analysis using the indicated antibodies. P53/p73OD expressing MDA-MB-231 or MCF-10A cells were either mock or irradiated with 4Gy. The cells were either harvested at 6 h post-IR for Western analysis (B) or at 24 h for FACS analysis (C). The results are mean±SE from three independent experiments.
# (§2) To understand potential mechanisms underlying the differential sensitivity of cancer cells and non-transformed cells to p53/p73OD expression, p53 activity was examined further. […] The result is in line with the notion that cancer cells, but not normal cells, harbor strong intrinsic p53-activating signals. The low activity of p53/p73OD in MCF-10A cells led to the question of whether the chimera could be activated by exogenous stimuli such as radiation.
# MCF-10A cells [3] = assay: FACS (flow cytometry) analysis after irradiation; assay type: cell-based, human; settings: MCF-10A cells expressing p53/p73OD, 4Gy, 24 h
# Procedure: as §1, §2
# [4] = tested on: MDA-MB-231 cells stably expressing Pg13-GFP; assay: Pg13-GFP reporter of p53 activation; assay type: cell-based, human; settings: delivered with GLU-PEG-PEI, 0.2 μg DNA/60-mm dish, 24 h
# Procedure: The cells were fixed 24 h later using 2% formalin and stained with DAPI dye. The top panels show the GFP expression. The bottom panels show cell nuclei detected by DAPI staining.
# To facilitate the detection of p53 activation in situ, a Pg13-GFP system was developed in which 13 repeats of a canonical p53 responsive element were cloned to drive the expression of GFP protein. An absolute dependency of the GFP expression on p53 was verified with p53-null H1299 cells. […] The cells were fixed 24 h later.
# MCF-10A cells [5] = assay: Western analysis of p53 pathway; assay type: cell-based, human; settings: 4Gy, 6 h post-IR
# Procedure: as §1, §2
# p73 = target: T1, p73 (Homo sapiens, UniProt O15350); settings: reference [28]; cited from earlier work
# T1 sequence (O15350 1-499 isoform O15350-2): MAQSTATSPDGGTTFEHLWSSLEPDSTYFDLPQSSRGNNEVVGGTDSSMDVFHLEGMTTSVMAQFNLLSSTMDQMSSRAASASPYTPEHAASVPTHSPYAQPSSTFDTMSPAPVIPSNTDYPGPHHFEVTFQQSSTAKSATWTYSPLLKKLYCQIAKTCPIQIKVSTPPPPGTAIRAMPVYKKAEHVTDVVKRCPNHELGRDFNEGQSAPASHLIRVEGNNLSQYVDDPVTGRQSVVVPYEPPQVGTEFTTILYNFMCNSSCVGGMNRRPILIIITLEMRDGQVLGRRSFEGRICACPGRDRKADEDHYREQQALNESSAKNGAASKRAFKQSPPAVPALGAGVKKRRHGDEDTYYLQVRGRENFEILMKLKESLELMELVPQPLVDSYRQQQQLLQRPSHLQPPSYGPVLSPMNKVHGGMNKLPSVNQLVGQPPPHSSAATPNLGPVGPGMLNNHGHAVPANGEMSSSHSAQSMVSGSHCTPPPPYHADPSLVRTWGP
# MDA-MB-231 cells [6] = assay: Western analysis of p53 pathway; assay type: cell-based, human
# Procedure: After selection with puromycin, the cells were subjected to colony formation assay. The data are means±SE from three separate experiments (A). Western analysis was performed with cells that were harvested at 48 h pos-selection and probed using the indicated antibodies (B).
# as §1
# The present invention utilizes a p53/p73 chimera to circumvent this OD-mediated inactivation by mutant p53. A series of p53/p73 chimeric proteins were generated by swapping corresponding domains of p53 and p73 [28]. […] A crystal structure study has confirmed this observation. […] This is of particular significance considering the dominant-negative and gain-of-function activities of mutant p53 that are primarily responsible for the oncogenic function.
# as §2
# MCF-10A cells [7] = assay: Colony formation assay; assay type: cell-based, human; settings: expression level that markedly inhibits MDA-MB-231 growth
# Procedure: FIG. 6. MCF-10A cells are less sensitive to a moderate level of p53/p73OD expression. MCF-10A cells with MDA-MB-231 cells as controls were transfected with the indicated vectors (0.5 μg) and subjected to colony formation assay as in FIG. 5. Western blot was performed in parallel to determine the level of p53/p73OD expression.
# As a result, the response of normal cells to a moderate level of p53/p73OD expression is likely to differ from that of cancer cells. This was tested by comparing MDA-MB-231 cells and MCF-10A cells (a non-transformed human breast epithelial cell line), using a similar colony formation assay.
# Sequence of p53 (P04637 whole entry): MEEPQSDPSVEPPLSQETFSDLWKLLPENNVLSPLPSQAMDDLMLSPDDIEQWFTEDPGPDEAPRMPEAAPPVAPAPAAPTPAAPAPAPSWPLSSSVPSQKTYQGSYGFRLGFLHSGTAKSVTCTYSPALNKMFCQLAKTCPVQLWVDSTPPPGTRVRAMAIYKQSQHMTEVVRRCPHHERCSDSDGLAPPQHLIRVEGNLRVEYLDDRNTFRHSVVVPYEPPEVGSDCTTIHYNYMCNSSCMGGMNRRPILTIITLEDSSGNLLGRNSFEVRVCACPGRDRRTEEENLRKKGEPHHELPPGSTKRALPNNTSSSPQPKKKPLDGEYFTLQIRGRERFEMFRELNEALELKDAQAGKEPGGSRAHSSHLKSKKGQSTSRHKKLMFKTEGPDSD
substance,measurement,setting,value
p53/p73OD: human p53 protein in which amino acids 318 to 364 are replaced with amino acids 346-390 of p73 (the oligomerization domain),binding to p53,p53,does not bind
same,cell growth (colony formation),MDA-MB-231 cells [1],effectively inhibited cell growth
same,G1 cell cycle arrest after IR,MDA-MB-231 cells [2],little G1 cell cycle arrest
same,"sub-G1, or apoptotic population after IR",MDA-MB-231 cells [2],marked increase
same,G1 cell cycle arrest after IR,MCF-10A cells [3],significant G1 cell cycle arrest
same,p53 transcription activity (GFP expression),[4],increase of p53 transcription activity
same,phosphorylation after IR,MCF-10A cells [5],markedly induced
same,association with p73,p73,associates
same,"PUMA, MDM2 and p21 expression",MDA-MB-231 cells [6],robust induction
same,phosphorylation after IR,"MDA-MB-231 cells [6]; 4Gy, 6 h post-IR",markedly induced
same,mutant p53 protein level,"MDA-MB-231 cells [6]; Western, 48 h post-selection",significant decrease
same,phosphorylation (anti-Sp15p53 Western),MDA-MB-231 cells [6]; no irradiation,phosphorylated
same,cell growth (colony formation),MCF-10A cells [7],did not significantly impact the growth

# From patent US20130011333A1, “Methods and Compositions for Nanoparticle-Mediated Cancer Cell-Targeted Delivery” (Board of Regents, The University of Texas System, priority 2010, published 2013)
